Test systems include A549; CCRF-CEM; COLO 205; EKVX; HCC 2998; HCT-15; HL-60; HOP-62; HT-29; KM12; MCF7; NCI-H23; NCI-H460; OVCAR-4; OVCAR-5; SF-295; SF-539; SN12C; SNB-75; UO-31.
What all share (experiment): NCI anticancer screen, dose series, 48 h

This is an account of results in ChEMBL document CHEMBL1201862, “PubChem BioAssay data set” (2004).

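Step 1: Grow cells in 96-well plates. Step 2: Expose to compound for 48 hours at 5 concentrations. Step 3: Interpolate endpoints linearly; if unreached, use highest concentration. Here, GI50 denotes the concentration required for 50% inhibition of growth.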 Active and inactive are the calls of the source. No stated cut-off is given here; in the data, active = GI50 up to about 1.1 µM and inactive = higher. Bounds are passed on as bounds.

For the molecule `O=C(O)c1cn2c3c(cc(N4CCN(CCO)CC4)cc3c1=O)SCC2`, the GI50 was > 100 µM (inactive) in the test on A549; 48.8 µM (inactive) in the test on CCRF-CEM; > 100 µM (inactive) with COLO 205; > 100 µM (inactive) with EKVX; 33 µM (inactive) in the test on HCC 2998; more than 100 µM in the test on HCT-15. The GI50 in the test on HL-60 was > 100 µM (inactive); in the test on HOP-62, 48.4 µM (inactive); in the test on HT-29 it was > 100 µM (inactive); in the test on KM12 it was > 76.9 µM (inactive); with MCF7, 29.7 µM (inactive); in the test with NCI-H23 it was 57.5 µM (inactive). Besides, the GI50 in the test on NCI-H460 was > 95.7 µM (inactive); with OVCAR-4 it was > 60.8 µM (inactive); in the test with OVCAR-5, > 75.5 µM (inactive); in the test with SF-295 it was > 100 µM (inactive); in the test on SF-539, 46.1 µM (inactive); with SN12C, 47.1 µM (inactive). Besides, the GI50 in the test with SNB-75 was 30.7 µM (inactive); with UO-31, > 100 µM (inactive).

Consider `O=C(NC(Cc1ccc(I)cc1)C(=O)O)c1ccc(Cl)cc1` (stereo not given), for which the GI50 with A549 is > 100 µM (inactive); in the test with CCRF-CEM, > 81.5 µM (inactive); in the test on COLO 205 it was > 100 µM (inactive); in the test on EKVX it was > 67.8 µM (inactive); in the test with HCC 2998, > 38.8 µM (inactive); in the test on HCT-15, more than 100 µM. Also, the GI50 was > 100 µM (inactive) in the test on HL-60; > 100 µM (inactive) with HOP-62; > 100 µM (inactive) in the test with HT-29; > 100 µM (inactive) with KM12; 37.8 µM (inactive) with MCF7; > 100 µM (inactive) in the test on NCI-H23. Moreover, the GI50 in the test on NCI-H460 was > 100 µM (inactive); with OVCAR-4, > 66.8 µM (inactive); in the test on OVCAR-5, > 100 µM (inactive); in the test on SF-295 it was > 100 µM (inactive); in the test on SF-539, > 77.1 µM (inactive); in the test with SN12C, > 100 µM (inactive). The GI50 was 87.3 µM (inactive) in the test on SNB-75 and > 100 µM (inactive) with UO-31.

As for `CCOC(=O)c1nc2ccccc2nc1Nc1ccc(C(=O)OC)s1`, the GI50 was > 100 µM (inactive) in the test with A549; > 100 µM (inactive) in the test on CCRF-CEM; > 100 µM (inactive) with COLO 205; > 100 µM (inactive) in the test on EKVX; > 100 µM (inactive) in the test with HCC 2998; more than 100 µM in the test with HCT-15. The GI50 with HL-60, in the test on HOP-62, with HT-29, in the test on KM12, in the test with MCF7 and with NCI-H23 was > 100 µM (inactive) throughout. In addition, the GI50 in the test on NCI-H460, in the test with OVCAR-4, in the test with OVCAR-5, in the test with SF-295, in the test on SF-539 and in the test with SN12C was > 100 µM (inactive) each time. For the same molecule, the GI50 in the test with SNB-75 and with UO-31 was > 100 µM (inactive) in each case.

`CC[C@@]1(O)C[C@H](OC2CC(N(C)C)C(O)C(C)O2)c2c(cc3c(c2O)C(=O)c2c(O)ccc(O)c2C3=O)[C@H]1C(=O)OC` (stereo not given in full): the GI50 with A549 is 0.0365 µM (active); in the test with CCRF-CEM, 0.0242 µM (active); in the test on COLO 205 it was 0.0467 µM (active); in the test with EKVX, 0.135 µM (active); with HCC 2998, 0.162 µM (active); in the test on HCT-15 it was 0.0452 µM. The GI50 was 0.0457 µM (active) with HL-60; 0.107 µM (active) in the test with HOP-62; 0.0388 µM (active) in the test on HT-29; 0.0635 µM (active) in the test with KM12; 0.0885 µM (active) in the test with MCF7; 0.11 µM (active) in the test with NCI-H23. Besides, the GI50 in the test with NCI-H460 was 0.0221 µM (active); in the test on OVCAR-4, 0.029 µM (active); in the test with OVCAR-5, 0.141 µM (active); with SF-295 it was 0.032 µM (active); with SF-539, 0.0895 µM (active); with SN12C, 0.0377 µM (active). In addition, the GI50 is 0.0826 µM (active) in the test with SNB-75 and 0.158 µM (active) in the test with UO-31.

As for `CCCCCCCCCCCCCCCCNCC(O)CN` (stereo not given), the GI50 is 3.44 µM (inactive) in the test with A549; 1.96 µM (inactive) in the test on CCRF-CEM; 1.87 µM (inactive) with COLO 205; 17.3 µM (inactive) with EKVX; 2.39 µM (inactive) with HCC 2998; 2.06 µM in the test on HCT-15. Further, the GI50 in the test with HL-60 was 1.85 µM (inactive); in the test with HOP-62, 16.7 µM (inactive); in the test with HT-29 it was 1.99 µM (inactive); in the test on KM12 it was 1.75 µM (inactive); in the test on MCF7, 2.36 µM (inactive); with NCI-H23 it was 6.71 µM (inactive). Also, the GI50 in the test with NCI-H460 was 1.84 µM (inactive); in the test on OVCAR-4, 3.48 µM (inactive); in the test on OVCAR-5, 7.76 µM (inactive); with SF-295, 2.64 µM (inactive); in the test on SF-539, 2.34 µM (inactive); with SN12C, 4.07 µM (inactive). For the same molecule, the GI50 is 3.28 µM (inactive) in the test on SNB-75 and 7.73 µM (inactive) with UO-31.

With `COC(=O)C1C(O)C(C)C(O)OC1C(C)C(O)C(C)/C=C\C=C(/C)C(=O)Nc1c(C)c(OC(C)=O)c2c(c1O)C(=O)C(C)=C1OCOC(/C(C)=C/C(C)=O)=C12` (stereo not given), the GI50 in the test on A549 is 15.1 µM (inactive); in the test with CCRF-CEM, 5.96 µM (inactive); in the test with COLO 205, 8.99 µM (inactive); in the test on EKVX it was 11.9 µM (inactive); in the test with HCC 2998, 13.9 µM (inactive); in the test on HCT-15 it was 14.3 µM. For the same molecule, the GI50 is 3.1 µM (inactive) in the test with HL-60; 11.6 µM (inactive) in the test with HOP-62; 14.5 µM (inactive) with HT-29; 14 µM (inactive) in the test with KM12; 13.9 µM (inactive) in the test with MCF7; 14.2 µM (inactive) in the test on NCI-H23. Besides, the GI50 is 13.7 µM (inactive) in the test with NCI-H460; 12.1 µM (inactive) in the test on OVCAR-4; 13.5 µM (inactive) with OVCAR-5; 14.9 µM (inactive) in the test with SF-295; 13.2 µM (inactive) in the test with SF-539; 12.4 µM (inactive) with SN12C. Also, the GI50 with SNB-75 was 3.77 µM (inactive); with UO-31, 16.4 µM (inactive).

On to `O=S(=O)(O)c1ccc(/N=N\c2ccc(/N=N\c3ccc(/C=C/c4ccc(/N=[N+](/[O-])c5ccc(/C=C/c6ccc(/N=N/c7ccc(/N=N\c8ccc(S(=O)(=O)O)cc8)cc7)cc6S(=O)(=O)O)c(S(=O)(=O)O)c5)cc4S(=O)(=O)O)c(S(=O)(=O)O)c3)cc2)cc1`, for which the GI50 in the test with A549 was > 100 µM (inactive); in the test on CCRF-CEM, > 100 µM (inactive); with COLO 205, > 100 µM (inactive); with EKVX it was > 100 µM (inactive); in the test on HCC 2998 it was > 100 µM (inactive); in the test with HCT-15, more than 100 µM. Also, the GI50 with HL-60, in the test with HOP-62, in the test with HT-29, with KM12, in the test with MCF7 and with NCI-H23 was > 100 µM (inactive) each time. For the same molecule, the GI50 in the test on NCI-H460 is > 100 µM (inactive); in the test with OVCAR-4, > 87.9 µM (inactive); in the test with OVCAR-5, > 100 µM (inactive); in the test on SF-295 it was > 100 µM (inactive); in the test with SF-539 it was > 100 µM (inactive); with SN12C it was > 100 µM (inactive). Also, the GI50 is 69.7 µM (inactive) with SNB-75 and > 100 µM (inactive) with UO-31.

In the case of `CC[C@@]1(O)C(=O)OCc2c1cc1n(c2=O)Cc2cc3c(N)cccc3nc2-1` [9-AMINOCAMPTOTHECIN], the GI50 with A549 is 0.0188 µM (active); with CCRF-CEM, < 0.0369 µM (active); in the test with COLO 205 it was 0.157 µM (active); in the test on EKVX, 0.34 µM (active); in the test on HCC 2998, 0.111 µM (active); in the test with HCT-15, 0.197 µM. In addition, the GI50 in the test with HL-60 is < 0.01 µM (active); in the test with HOP-62, < 0.01 µM (active); with HT-29 it was 0.0632 µM (active); with KM12 it was 0.23 µM (active); with MCF7, < 0.01 µM (active); in the test on NCI-H23 it was < 0.01 µM (active). Moreover, the GI50 in the test on NCI-H460 was < 0.01 µM (active); in the test on OVCAR-4, 0.238 µM (active); in the test on OVCAR-5, 0.128 µM (active); in the test with SF-295, < 0.01 µM (active); with SF-539, < 0.01 µM (active); with SN12C it was < 0.01 µM (active). For the same molecule, the GI50 in the test with SNB-75 is < 0.0115 µM (active); in the test on UO-31, 0.0175 µM (active).
